From patent US9688627B2, “Lactam compounds as EP4 receptor-selective agonists for use in the treatment of EP4-mediated diseases and conditions” (Cayman Chemical Company, Inc., priority 2013, dated 2017) come the findings set out here.

In one assay the target is T1, rat EP4 receptor (Rattus norvegicus, UniProt P43114).
T1 construct: cells seeded on STEP plates
Put plainly: SEAP activity assay on EP4 STEP plate. The settings on record: SEAP luminescence, 6-8 hours of stimulation; read-out: STEP cell functional assay EC50 SEAP/EP4. In kind it is cell-based. The source says:
(§1) 2. […] In addition each concentration had triplicates. […] 4. […] Cover the plate with the lid. […] 6. […] 7. […] 8.

Another assay deals with T2, rat EP2 receptor (Rattus norvegicus, UniProt Q62928).
T2 construct: cells seeded on STEP plates
T2 sequence (Q62928 whole entry): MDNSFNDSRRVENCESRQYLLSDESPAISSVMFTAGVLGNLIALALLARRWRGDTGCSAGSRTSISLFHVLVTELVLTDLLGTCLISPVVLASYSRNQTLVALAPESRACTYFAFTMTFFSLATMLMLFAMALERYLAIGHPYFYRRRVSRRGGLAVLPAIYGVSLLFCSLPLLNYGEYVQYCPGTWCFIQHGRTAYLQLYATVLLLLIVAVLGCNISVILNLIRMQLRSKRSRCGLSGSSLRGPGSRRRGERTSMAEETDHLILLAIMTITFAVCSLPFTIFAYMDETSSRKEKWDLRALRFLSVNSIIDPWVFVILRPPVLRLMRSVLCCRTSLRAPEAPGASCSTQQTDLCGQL
Kind of assay: SEAP activity assay on EP2 STEP plate. Format: cell-based. The settings on record: SEAP luminescence, 6-8 hours of stimulation; read-out: STEP cell functional assay EC50 SEAP/EP2.
Excerpt: as §1

T1 sequence (P43114 whole entry): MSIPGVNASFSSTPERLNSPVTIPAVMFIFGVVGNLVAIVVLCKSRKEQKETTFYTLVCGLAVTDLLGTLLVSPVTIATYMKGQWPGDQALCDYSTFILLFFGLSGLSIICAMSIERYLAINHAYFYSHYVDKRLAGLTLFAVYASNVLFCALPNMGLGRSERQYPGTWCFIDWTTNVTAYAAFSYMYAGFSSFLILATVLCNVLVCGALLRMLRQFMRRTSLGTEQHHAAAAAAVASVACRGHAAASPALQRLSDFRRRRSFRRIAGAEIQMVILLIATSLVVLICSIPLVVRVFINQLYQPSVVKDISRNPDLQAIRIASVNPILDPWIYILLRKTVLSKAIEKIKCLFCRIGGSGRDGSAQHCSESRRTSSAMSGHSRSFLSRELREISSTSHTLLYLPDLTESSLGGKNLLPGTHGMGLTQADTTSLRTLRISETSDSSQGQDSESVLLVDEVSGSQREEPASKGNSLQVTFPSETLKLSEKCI

For the compound `CCC#CCC(C)[C@@H](O)/C=C/[C@H]1CCC(=O)N1CCCCCCC(=O)O` (mixture of isomers) [Example 2D, 7-((2R)-2-((3R,4R/S,E)-3-hydroxy-4-methylnon-1-en-6-yn-1-yl)-5-oxopyrrolidin-1-yl)heptanoic acid], the values for the EC50 on rat EP4 receptor and on rat EP2 receptor were 0.145 nM and 1420 nM, respectively.
The corresponding values for `CCCC#CCC(C)[C@H](O)/C=C/[C@H]1CCC(=O)N1CCCCCCC(=O)OC` (mixture of isomers) [Example 3A, methyl 7-((2R)-2-((3S,4R/S,E)-3-hydroxy-4-methyldec-1-en-6-yn-1-yl)-5-oxopyrrolidin-1-yl)heptanoate] are 8.64 nM and 2490 nM.
The like results for `CCCC#CCC(C)[C@@H](O)/C=C/[C@H]1CCC(=O)N1CCCCCCC(=O)OC` (mixture of isomers) [Example 3B, methyl 7-((2R)-2-((3R,4R/S,E)-3-hydroxy-4-methyldec-1-en-6-yn-1-yl)-5-oxopyrrolidin-1-yl)heptanoate] were, in that order, 223 nM and above 10000 nM.
The corresponding values for `CCCC#CCC(C)[C@H](O)/C=C/[C@H]1CCC(=O)N1CCCCCCC(=O)O` (mixture of isomers) [Example 3C, 7-((2R)-2-((3S,4R/S,E)-3-hydroxy-4-methyldec-1-en-6-yn-1-yl)-5-oxopyrrolidin-1-yl)heptanoic acid] are 0.085 nM and 2260 nM.
For `CCCC#CCC(C)[C@@H](O)/C=C/[C@H]1CCC(=O)N1CCCCCCC(=O)O` (mixture of isomers) [Example 3D, 7-((2R)-2-((3R,4R/S,E)-3-hydroxy-4-methyldec-1-en-6-yn-1-yl)-5-oxopyrrolidin-1-yl)heptanoic acid], the figures for the EC50 at rat EP4 receptor and at rat EP2 receptor were 29 nM and above 10000 nM, respectively.
`CC(CC#Cc1ccccc1)[C@H](O)/C=C/[C@H]1CCC(=O)N1CCCCCCC(=O)O` (mixture of isomers) [Example 4C, 7-((2R)-2-((3S,4R/S,E)-3-hydroxy-4-methyl-7-phenylhept-1-en-6-yn-1-yl)-5-oxopyrrolidin-1-yl)heptanoic acid]: the EC50 at rat EP4 receptor was found to be 2.49 nM; on rat EP2 receptor, 830 nM.
The like results for `CC#CCC(C)[C@H](O)/C=C/[C@H]1CCC(=O)N1CCc1ccc(C(=O)OC)cc1` (mixture of isomers) [Example 8A, methyl 4-(2-((2R)-2-((3S,4R/S,E)-3-hydroxy-4-methyloct-1-en-6-yn-1-yl)-5-oxopyrrolidin-1-yl)ethyl)benzoate] were, in that order, 6.74 nM and 364 nM.
Turning to `CC#CCC(C)[C@@H](O)/C=C/[C@H]1CCC(=O)N1CCc1ccc(C(=O)OC)cc1` (mixture of isomers) [Example 8B, methyl 4-(2-((2R)-2-((3R,4R/S,E)-3-hydroxy-4-methyloct-1-en-6-yn-1-yl)-5-oxopyrrolidin-1-yl)ethyl)benzoate], the EC50 on rat EP4 receptor is 1640 nM.
As for `CC#CCC(C)[C@@H](O)/C=C/[C@H]1CCC(=O)N1CCc1ccc(C(=O)O)cc1` (mixture of isomers) [Example 8D, 4-(2-((2R)-2-((3R,4R/S,E)-3-hydroxy-4-methyloct-1-en-6-yn-1-yl)-5-oxopyrrolidin-1-yl)ethyl)benzoic acid], the EC50 at rat EP4 receptor was 13.4 nM; at rat EP2 receptor, 1130 nM.
On to `CC(CC#Cc1ccccc1)[C@H](O)/C=C/[C@H]1CCC(=O)N1CCc1ccc(C(=O)O)cc1` (mixture of isomers) [Example 11C, 4-(2-((2R)-2-((3S,4R/S,E)-3-hydroxy-4-methyl-7-phenylhept-1-en-6-yn-1-yl)-5-oxopyrrolidin-1-yl)ethyl)benzoic acid], for which the EC50 on rat EP4 receptor came out at 0.054 nM; on rat EP2 receptor, 2960 nM.
For the compound `CC(CC#Cc1ccccc1)[C@@H](O)/C=C/[C@H]1CCC(=O)N1CCc1ccc(C(=O)O)cc1` (mixture of isomers) [Example 11D, 4-(2-((2R)-2-((3R,4R/S,E)-3-hydroxy-4-methyl-7-phenylhept-1-en-6-yn-1-yl)-5-oxopyrrolidin-1-yl)ethyl)benzoic acid], the results for the EC50 on rat EP4 receptor and at rat EP2 receptor were 3.51 nM and 1750 nM, respectively.
On to `CC#CCC(C)[C@H](O)/C=C/[C@H]1CCC(=O)N1Cc1ccc(CC(=O)O)cc1` (mixture of isomers) [Example 12C, 2-(4-(((2R)-2-((3S,4R/S,E)-3-hydroxy-4-methyloct-1-en-6-yn-1-yl)-5-oxopyrrolidin-1-yl)methyl)phenyl)acetic acid], for which the EC50 is 2290 nM at rat EP4 receptor and above 10000 nM on rat EP2 receptor.
In the case of `CC#CCC(C)[C@@H](O)/C=C/[C@H]1CCC(=O)N1Cc1ccc(CC(=O)O)cc1` (mixture of isomers) [Example 12D, 2-(4-(((2R)-2-((3R,4R/S,E)-3-hydroxy-4-methyloct-1-en-6-yn-1-yl)-5-oxopyrrolidin-1-yl)methyl)phenyl)acetic acid], the EC50 at rat EP4 receptor and on rat EP2 receptor was above 10000 nM each time.
Turning to `CCC#CCC(C)[C@H](O)/C=C/[C@H]1CCC(=O)N1C/C=C\c1ccc(C(=O)O)s1` (mixture of isomers) [Example 15C, 5-((Z)-3-((2R)-2-((3S,4R/S,E)-3-hydroxy-4-methylnon-1-en-6-yn-1-yl)-5-oxopyrrolidin-1-yl)prop-1-en-1-yl)thiophene-2-carboxylic acid], the EC50 on rat EP4 receptor is 947 nM; at rat EP2 receptor, above 10000 nM.
The corresponding values for `CCC#CCC(C)[C@@H](O)/C=C/[C@H]1CCC(=O)N1C/C=C\c1ccc(C(=O)O)s1` (mixture of isomers) [Example 15D, 5-((Z)-3-((2R)-2-((3R,4R/S,E)-3-hydroxy-4-methylnon-1-en-6-yn-1-yl)-5-oxopyrrolidin-1-yl)prop-1-en-1-yl)thiophene-2-carboxylic acid] are 1600 nM and above 10000 nM.
In the case of `CC(CC#Cc1ccccc1)[C@H](O)/C=C/[C@H]1CCC(=O)N1C/C=C\c1ccc(C(=O)O)s1` (mixture of isomers) [Example 16C, 5-((Z)-3-((2R)-2-((3S,4R/S,E)-3-hydroxy-4-methyl-7-phenylhept-1-en-6-yn-1-yl)-5-oxopyrrolidin-1-yl)prop-1-en-1-yl)thiophene-2-carboxylic acid], the results for the EC50 at rat EP4 receptor and at rat EP2 receptor were 67.2 nM and above 10000 nM, respectively.
The corresponding values for `CC(CC#Cc1ccccc1)[C@@H](O)/C=C/[C@H]1CCC(=O)N1C/C=C\c1ccc(C(=O)O)s1` (mixture of isomers) [Example 16D, 5-((Z)-3-((2R)-2-((3R,4R/S,E)-3-hydroxy-4-methyl-7-phenylhept-1-en-6-yn-1-yl)-5-oxopyrrolidin-1-yl)prop-1-en-1-yl)thiophene-2-carboxylic acid] are 1200 nM and above 10000 nM.
`COC(=O)CCCCCCN1C(=O)CC[C@@H]1/C=C/[C@@H](O)CCC#Cc1ccccc1` (single isomer, unassigned) [Example 5A]: the EC50 at rat EP4 receptor was 77.7 nM; at rat EP2 receptor, above 10000 nM.
The like results for `COC(=O)CCCCCCN1C(=O)CC[C@@H]1/C=C/[C@H](O)CCC#Cc1ccccc1` (single isomer, unassigned) [Example 5B] were, in that order, 41.5 nM and above 5000 nM.
As for `CCC#C[C@H](O)/C=C/[C@H]1CCC(=O)N1CCCCCCC(=O)OC` (single isomer, unassigned) [Example 6A], the EC50 at rat EP4 receptor is 6.71 nM; at rat EP2 receptor it was above 3000 nM.
For `CCC#C[C@@H](O)/C=C/[C@H]1CCC(=O)N1CCCCCCC(=O)OC` (single isomer, unassigned) [Example 6B], the EC50 at rat EP2 receptor was above 2000 nM.
Consider `CCC#CC[C@@H](C)[C@H](O)/C=C/[C@H]1CCC(=O)N1CCCCCCC(=O)O` [Example 2F, 7-((R)-2-((3S,4R,E)-3-hydroxy-4-methylnon-1-en-6-yn-1-yl)-5-oxopyrrolidin-1-yl)heptanoic acid], for which, at rat EP4 receptor, the EC50 turned out to be 1.06 ± 0.11 nM.
As to `O=C(O)CCCCCCN1C(=O)CC[C@@H]1/C=C/[C@@H](O)CCC#Cc1ccccc1` [Example 5C, 7-((R)-2-((3S,E)-3-hydroxy-7-phenylhept-1-en-6-yn-1-yl)-5-oxopyrrolidin-1-yl)heptanoic acid], at rat EP4 receptor, the EC50 is 111 nM.
As to `O=C(O)CCCCCCN1C(=O)CC[C@@H]1/C=C/[C@H](O)CCC#Cc1ccccc1` [Example 5D, 7-((R)-2-((3R,E)-3-hydroxy-7-phenylhept-1-en-6-yn-1-yl)-5-oxopyrrolidin-1-yl)heptanoic acid], the EC50 at rat EP4 receptor amounted to 46.8 nM.
Same read-out and setting: the result for `CCC#C[C@H](O)/C=C/[C@H]1CCC(=O)N1CCCCCCC(=O)O` [Example 6C, 7-((R)-2-((R,E)-3-hydroxyhept-1-en-4-yn-1-yl)-5-oxopyrrolidin-1-yl)heptanoic acid] reads 4.73 nM.
Still for that read-out and setting: to `CCC#C[C@@H](O)/C=C/[C@H]1CCC(=O)N1CCCCCCC(=O)O` [Example 6D, 7-((R)-2-((S,E)-3-hydroxyhept-1-en-4-yn-1-yl)-5-oxopyrrolidin-1-yl)heptanoic acid] belongs 4.79 nM.
As for `O=C(O)CCCCCCN1C(=O)CC[C@@H]1/C=C/[C@@H](O)C#Cc1ccccc1` [Example 7C, 7-((R)-2-((R,E)-3-hydroxy-5-phenylpent-1-en-4-yn-1-yl)-5-oxopyrrolidin-1-yl)heptanoic acid], the figures for the EC50 at rat EP4 receptor and at rat EP2 receptor were 22.3 nM and above 10000 nM, respectively.
With `CCC#CCC(C)[C@H](O)/C=C/[C@H]1CCC(=O)N1CC#Cc1ccc(C(=O)O)s1` (stereo partly drawn) [Example 13C, 5-(3-((2R)-2-((3S,E)-3-hydroxy-4-methylnon-1-en-6-yn-1-yl)-5-oxopyrrolidin-1-yl)prop-1-yn-1-yl)thiophene-2-carboxylic acid], the EC50 on rat EP4 receptor is 18.3 nM; at rat EP2 receptor it was above 10000 nM.
Regarding `CCC#CCC(C)[C@@H](O)/C=C/[C@H]1CCC(=O)N1CC#Cc1ccc(C(=O)O)s1` (stereo partly drawn) [Example 13D, 5-(3-((2R)-2-((3R,E)-3-hydroxy-4-methylnon-1-en-6-yn-1-yl)-5-oxopyrrolidin-1-yl)prop-1-yn-1-yl)thiophene-2-carboxylic acid], on rat EP2 receptor, the EC50 is above 10000 nM.
